Like-named read-outs stand apart in the source and are kept apart here.
Assays:
Bcl-2 = details: Literatures 13 through 16, cited from earlier work
[1] = test system: SITH-1/Adv nasal administration mice; experiment: Tail suspension test of SSRI-treated SITH-1/Adv nasal administration mice; type: in vivo; details: 80 mg/L Fluoxetine solution as drinking water from 2 weeks before nasal SITH-1/Adv; test 7 days after nasal administration, 10 minutes
Protocol: 8-week-old C57BL/6NCrSlc mice were raised at a room temperature of 24±1° C. and with lights on for 12 hours and off for 12 hours. After each of the mice was anesthetized with use of isoflurane, SITH-1/Adv or empty/Adv in an amount equivalent to 2.5×10^7 ifu was dropped onto the nasal cavity, and was then sucked along with breathing. Then, the mice were returned to raising cages.
7 days after the nasal administration of SITH-1/Adv or empty/Adv, a tail suspension test was carried out for 10 minutes. A period of immobility time was measured with use of TailSuspScanTopScan (CleverSys, Inc.). The tail suspension test was carried out by suspending each mouse by taping the tail 1 cm from the end. […] In the experiment, 30 mice were used in each group.
Then, it was studied whether or not an SSRI (selective serotonin reuptake inhibitor), which is an antidepressant, would restrict an increase in immobility time, the increase being caused by the nasal administration of the SITH-1/Adv. 80 mg/L of Fluoxetine solution as drinking water was given to 6-week-old mice (see Literature 18), and then the mice were raised for 2 weeks. Then, SITH-1/Adv was nasally administered. 7 days after the nasal administration, a tail suspension test was carried out for 10 minutes. […] Statistical significance (* indicates P<0.05, ** indicates P<0.01, and *** indicates P<0.001) was calculated by use of the Mann-Whitney U-test.

HHV-6 HST strain = experiment: SITH-1 expression in HHV-6-infected U373 cells pre-reacted with heparin or anti-heparan sulfate peptide; type: cell-based; details: cells reacted with 10 unit/mL Novo-Heparin at 4° C. for 1 hour before infection; MOI 3; 48 hours
Protocol: U373 astrocytoma cells were removed with use of trypsin-EDTA, and then a medium (10% FBS-containing DMEM) was added, so that the resultant cells were at 1×10^5 cell/mL. Then, the U373 cells were reacted with 10 unit/mL of Novo-Heparin (Mochida Pharmaceutical Co., Ltd.) or 0.1 mM of anti-3-OS Heparan sulfate (HS) peptide trifluoroacetate salt (Sigma-Aldrich) at 4° C. for 1 hour. The U373 cells were also reacted only with a medium as a control at 4° C. for 1 hour. The resultant cells were washed 3 times with a medium. Then, the U373 cells thus washed were infected with a HHV-6 HST strain virus fluid (2.9×10^6 ffu/ml) at a MOI of 3 by centrifugation. Then, the infected cells were cultured at 37° C. for 48 hours in a CO2 incubator.
From the resultant infected cells, RNA was purified by use of RNeasy Mini Kit (Qiagen) in accordance with the standard protocol. Then, cDNA was synthesized by use of a PrimeScript RT Reagent Kit (Takara Bio). Finally, expression levels of SITH-1 and GAPDH mRNA were measured by a method similar to that used in the above (3.1).

Row | Compound | Bcl-2 expression in the brain (Bcl-2) | further results
1 | N[C@@H]1C[C@H]1c1ccccc1 (racemic) [tranylcypromine] | promote Bcl-2 expression in the brain | –
2 | CNCCC(Oc1ccc(C(F)(F)F)cc1)c1ccccc1 (stereo not shown) [Fluoxetine] | promotes Bcl-2 expression | Bcl-2 expression in the brain (Bcl-2; listed as fluoxetine): promote Bcl-2 expression in the brain; immobility time increases in tail suspension test [1]: restricted
3 | CN(C)CCC=C1c2ccccc2CCc2ccccc21 [amitriptyline] | promote Bcl-2 expression in the brain | –
4 | CNCCCN1c2ccccc2CCc2ccccc21 [desipramine] | promote Bcl-2 expression in the brain | –
5 | CN(C)CCCN1c2ccccc2CCc2ccccc21 [imipramine] | promote Bcl-2 expression in the brain | –
6 | CCOc1ccccc1OC(c1ccccc1)C1CNCCO1 (stereo not shown) [reboxetine] | promote Bcl-2 expression in the brain | –
7 | COc1ccc(C(CN(C)C)C2(O)CCCCC2)cc1 (stereo not shown) [venlafaxine] | promote Bcl-2 expression in the brain | –
8 | heparin | – | SITH-1 expression in U373 cells (HHV-6 HST strain): restricted

From US10067142B2, “Method for diagnosing, treating, or preventing mood disorder” (priority 2014, dated 2018)
